# Values of other authors in US20070065449A1 (priority 2005, published 2007).
# Structures can show the parent of a compound that is named as a salt. Where two headings read alike, the source gives them in different places.
# How the values were obtained:
# [1] = tested on: advanced soft tissue sarcomas
# [2] = tested on: soft tissue sarcomas
# [3] = tested on: pretreated adult soft tissue sarcoma
# [4] = tested on: advanced soft tissue sarcomas; conditions: previously untreated advanced soft tissue sarcomas
# [5] = tested on: angiosarcoma of the scalp or face; conditions: four partial and four clinical complete responses
# [6] = tested on: leiomyosarcoma of the uterus; conditions: 48 evaluable patients
# [7] = tested on: tubulin; conditions: read-out: concentration required to provide 50% inhibition of microtubule disassembly (IC50)
# [8] = not given; remark: listed apart in the source
# [9] = in vivo
# [10] = tested on: soft tissue sarcomas; conditions: previously untreated patients; 95% CI 0.1, 29
# [11] = tested on: soft tissue sarcoma; conditions: 29 evaluable patients, previously treated with chemotherapy
# [12] = not given; remark: listed apart in the source
# [13] = tested on: soft tissue sarcoma; conditions: 27 evaluable patients, previously treated with chemotherapy
smiles,measurement,setting,value
Nc1ccn([C@@H]2O[C@H](CO)[C@@H](O)C2(F)F)c(=O)n1 [gemcitabine],duration of a partial response in a patient,[1]; in vivo,8 months
same,rate of remissions,"[1]; previously untreated patients, 90% CI 0, 18",4%
same,objective responses in patients with GIST,[2]; 17 patients with GIST,no objective responses
same,median duration of remission,[2]; in vivo,3.5 months
same,remission rate,[2]; patients with soft tissue sarcomas,18%
same,hemolytic uremic syndrome (HUS),6 of 2429 patients,0.25%
same,edema,"human, in vivo",13%
same,flu syndrome,"human, in vivo",19%
same,generalized edema,"human, in vivo",< 1%
same,overall incidence of fever,"human, in vivo",41%
same,peripheral edema,"human, in vivo",20%
same,principal dose-limiting toxicity,"human, in vivo",Myelosuppression
same,rash,"human, in vivo",30%
same,nausea and vomiting,usually mild to moderate severity,69%
same,disease stabilization,[3]; 15 assessable patients,47%
same,progression-free survival rate at 6 months,"[3]; calculated, 95% CI 0, 30.5",13.3%
same,progression-free survival rate at 3 months,"[3]; calculated, 95% CI 21.4, 71.9",46.7%
same,remission rate,"[3]; gemcitabine 1.0 g/m^2 days 1, 8, 15 every 4 weeks, 15 assessable patients",6%
same,median progression-free survival,[3]; range 1-18+,3 months
CC(=O)O[C@H]1C(=O)[C@@]2(C)[C@H]([C@H](OC(=O)c3ccccc3)[C@]3(O)C[C@H](OC(=O)[C@H](O)[C@@H](NC(=O)c4ccccc4)c4ccccc4)C(C)=C1C3(C)C)[C@]1(OC(C)=O)CO[C@@H]1C[C@@H]2O [paclitaxel],response rate,[4],12.5%
same,patients responding,[5],eight of nine
same,complete or partial response,[6],8.4%
same,stable disease,[6],22.9%
same,IC50,[7],400 nM
"Nc1ccn([C@@H]2O[C@H](CO)[C@@H](O)C2(F)F)c(=O)n1 [Gemcitabine HCl, 2′-deoxy-2′,2′-difluorocytidine monohydrochloride ((beta)-isomer)]",solubility in ethanol and polar organic solvents,[8],practically insoluble
same,solubility in methanol,[8],slightly soluble
same,solubility in water,[8],soluble
CC(=O)O[C@@]12CO[C@@H]1C[C@H](O)[C@@]1(C)C(=O)[C@H](O)C3=C(C)[C@@H](OC(=O)[C@H](O)[C@@H](NC(=O)OC(C)(C)C)c4ccccc4)C[C@@](O)([C@@H](OC(=O)c4ccccc4)[C@H]21)C3(C)C [docetaxel],major toxic effect which limits dose,[9],neutropenia
same,response rate,[10],5.9%
same,partial responses,[11],17%
same,storage time of initial diluted solution,"[12]; 10 mg docetaxel/ml, refrigerator or room temperature",≤ 8 h
same,stability of infusion solution,[12]; stored between 2 and 25° C.,4 h
same,IC50,[7],200 nM
same,partial responses,[13],15%
